The values below come from patent US9550740B2, “Antimicrobial compounds” (Dow Global Technologies LLC, priority 2012, dated 2017).

What all share (type): cell-based
The subject of assay [1] is pool of aerobic organisms (mixed pool of 6 bacterial species). Description: Biocidal efficacy at room temperature, aerobic bacteria. The note with it: for minimum dose needed to achieve 3-log reduction in bacteria levels: aerobic bacteria, ppm glutaraldehyde equivalent, tested 200 to 12 ppm. The protocol: (§1) Assay for Biocidal Efficacy at Room Temperature: Glutaraldehyde and Compounds 1 and 4 are tested for biocidal activity against a pool of aerobic organisms at room temperature and against sulfate reducing bacteria (SRB) at room temperature. Tests are performed as follows:
(§2) a. Stock preparation. Glutaraldehyde (50% in water) and Compounds 1 and 4 are each dissolved in DMSO to a concentration of 200 mM, which is equivalent to 20,000 ppm of free glutaraldehyde.
(§3) b. Aerobic Bacteria—a mixed pool of 6 bacterial species at approximately 5×10^6 CFU/mL in phosphate buffered saline is distributed into a 96-well plate. Each well receives an independent chemical treatment of the tested compounds at concentrations ranging from 200 ppm to 12 ppm glutaraldehyde. A control treatment of DMSO alone is also included. Each condition is tested in triplicate. After set periods of incubation (1, 4, and 24 h), the number of surviving cells in each well are enumerated by dilution to extinction in a medium containing resazurin dye as an indicator. c. Sulfate Reducing Bacteria (SRB)—SRB testing is performed as for the aerobic bacteria with the following modifications: the species Desulfovibrio longus is tested in anaerobic PBS and the enumeration of surviving cells is performed in a medium containing soluble iron as an indicator. d. Results: Values indicate minimum the dose needed (in ppm) to achieve 3-log reduction in bacteria levels. “n/a” indicates the threshold is not met at any of the tested doses. “N.D.” indicates no data available.

For assay [2], the system named is Thermus thermophilus (ATCC 27634). Description: Biocidal efficacy at elevated temperature. The note with it: for log kill of treated bacterial populations relative to an untreated control: 50 ppm glutaraldehyde equivalent. The protocol: Compound 1 is dissolved in DMSO to yield a 200 mM solution such that the glutaraldehyde-equivalent concentration of the stock solution is 20,000 ppm. The bacterial strain Thermus thermophilus (ATCC 27634) is maintained at 70° C. After 24-48 hours of growth, 10 mL of bacterial culture is harvested by spinning in a Beckman-Coulter benchtop centrifuge at 3000 rpm for 15 min. The cell pellet is resuspended in 100 mL of phosphate-buffered saline (PBS) to give approximately 5×10^5 CFU/mL and aliquoted into 10 mL portions in glass test tubes fitted with screw caps. Samples are equilibrated to 37, 55, or 70° C. for 30 min and then treated with glutaraldehyde or Compound 1 at 50 ppm glutaraldehyde equivalent. The treated samples are returned to their respective equilibration temperatures for 4 h and then enumerated for surviving bacteria. After 24 h, the process is repeated by adding fresh grown bacteria to the samples to re-challenge the biocide. The samples are again enumerated after 4 h. Results are reported in terms of log kill of treated bacterial populations relative to an untreated control at each temperature. For values listed as “>x,” actual kill may have been higher but could not be detected by this assay.

In assay [3] the test system is sulfate reducing bacteria (SRB), Desulfovibrio longus. Description: Biocidal efficacy at room temperature, sulfate reducing bacteria (SRB). The note with it: for minimum dose needed to achieve 3-log reduction in bacteria levels: SRB, anaerobic PBS, ppm glutaraldehyde equivalent, tested 200 to 12 ppm; for activity against SRB (in words): compared with glutaraldehyde. The protocol:
as §1, §2, §3

[4] abbreviates: 37 C., 24 hr (re-challenge with fresh bacteria, enumerated after 4 h).
The mark [5] stands for this setting: 55 C., 24 hr (re-challenge with fresh bacteria, enumerated after 4 h).
[6] abbreviates: 70 C., 24 hr (re-challenge with fresh bacteria, enumerated after 4 h).

Structures are written as SMILES. Bounds are passed on as bounds.

As to `CN1CCC(c2ccccc2)OC1CCCC1OC(c2ccccc2)CCN1C` (centres unmarked) [Compound 1, 1,3-bis(3-methyl-6-phenyl-1,3-oxazinan-2-yl)propane], the “biocidal activity against aerobic bacteria (in words)” value in assay [1] was “significant biocidal activity”. Further, the “minimum dose needed to achieve 3-log reduction in bacteria levels” value was 59 ppm in assay [1] (1 hour incubation); 26 ppm in assay [1] (4 hours incubation); 40 ppm in assay [1] (24 hours incubation); 133 ppm in assay [3] (1 hour incubation); 133 ppm in assay [3] (4 hours incubation). The “log kill of treated bacterial populations relative to an untreated control” value was greater than 3 in assay [2] (37 C., 4 hr); greater than 4 in assay [2] (setting [4]); greater than 3 in assay [2] (55 C., 4 hr); greater than 3 in assay [2] (setting [5]); greater than 4 in assay [2] (70 C., 4 hr); greater than 4 in assay [2] (setting [6]). Also, in assay [2] (at each temperature tested (37, 55, 70 C.)), the “activity compared with glutaraldehyde (in words)” value is given as “equivalent activity to glutaraldehyde”. In addition, the “activity against SRB (in words)” value in assay [3] was “some activity”.

Turning to `CN1CCOC1CCCC1OCCN1C` (centres unmarked) [Compound 4, 1,3-bis(3-methyloxazolidin-2-yl)propane], in assay [1], the “biocidal activity against aerobic bacteria (in words)” value is given as “limited activity”. In addition, the “minimum dose needed to achieve 3-log reduction in bacteria levels” value was 200 ppm in assay [1] (4 hours incubation), 200 ppm in assay [1] (24 hours incubation), 200 ppm in assay [3] (1 hour incubation) and 133 ppm in assay [3] (4 hours incubation). Moreover, in assay [3], the “activity against SRB (in words)” value is listed as “some activity”.

Consider `O=CCCCC=O` [glut, Glutaraldehyde, reference compound], for which the “minimum dose needed to achieve 3-log reduction in bacteria levels” value is recorded as 26 ppm in assay [1] (1 hour incubation); 26 ppm in assay [1] (4 hours incubation); 26 ppm in assay [1] (24 hours incubation); 89 ppm in assay [3] (1 hour incubation); 18 ppm in assay [3] (4 hours incubation); less than 12 ppm in assay [3] (24 hours incubation). In addition, the “log kill of treated bacterial populations relative to an untreated control” value in assay [2] (37 C., 4 hr) is greater than 3; in assay [2] (setting [4]), greater than 4; in assay [2] (55 C., 4 hr), greater than 3; in assay [2] (setting [5]), greater than 3; in assay [2] (70 C., 4 hr), greater than 4; in assay [2] (setting [6]) it was greater than 4.
